We go through 1 molecule from patent publication US20190298720A1, “USE OF SRC FAMILY KINASE INHIBITOR IN RIBOSOMAL DISORDER” (BIOXCEL CORPORATION, priority 2016, published 2019).

For assay [1], the system named is RPS19 knock-down zebrafish embryos. The experiment in a line: Erythropoiesis in a zebrafish model of DBA using RPS19 morpholino (o-dianisidine staining). In kind it is in vivo. Conditions: for % improvement of erythropoiesis / % intensity of staining: injected 1 cell stage & aqueous exposure, RPS19 Mo. As for the experimental part: To evaluate the effect of Saracatinib, a Src kinase inhibitor (Lyn kinase) on improving erythropoiesis in a zebrafish model of DBA using RPS19 morpholino.
Materials: Zebrafish (One celled stage), RPS19 morpholino (1 ng) and standard control morpholino were dissolved in ultrapure water. Saracatinib (Selleckchem; Cat no. 51006) was dissolved in 1% DMSO to achieve […], 50 μM and 100 μM concentrations. 0-dianisidine staining solution was made by dissolving 100 mg of 0-dianisidine in 70 mL ethanol, Acetate buffer (49 mL, 0.1 M Sodium acetate and 51 mL, 0.1 M acetic acid), 3% Hydrogen peroxide and ultrapure water; Phosphate buffer saline (PBS), Para formaldehyde (PFA), Tricaine methane sulfonate (ms-222) and Bleach solution (equal parts of 1% Potassium hydroxide and 3% Hydrogen peroxide) were used in the experimental procedures.
(i) Control Mo, Egg water represents the zebrafish embryos which were injected with standard control morpholino, and 1% DMSO thriving in egg water, (ii) RPS19 Mo, Egg water represents wild type zebrafish embryos microinjected with 1 ng of RPS19 morpholino, and 1% DMSO; thriving in egg water, and (iii) RPS19 Mo+Saracatinib injected 1 cell stage and aqueous exposure represents zebrafish embryos which were microinjected with RPS19 morpholino and where Saracatinib was also microinjected at 1-cell stage along with adding Saracatinib in the aqueous phase or egg water.
The wild type zebrafish with egg water were placed in separate wells and were microinjected with standard control morpholino and 1% DMSO, which acted as normal control (Control Mo, Egg water). The wild type zebrafish eggs were injected with 1 ng of RPS19 morpholino and 1% DMSO at 1-cell stage (RPS19 Mo, Egg water), and were incubated at 28.5° C. for 96 hours. Saracatinib was microinjected in the zebra fish at one cell stage and also exposed in the media (aqueous exposure) to achieve optimal concentrations of 25 μM, 50 μM and 100 μM (RPS19 Mo+Saracatinib injected 1 cell stage and aqueous exposure). The experiment was carried out in the 6-well plates for control (Control Mo, Egg water); morpholinos group (RPS19 Mo, Egg water) and Saracatinib treatment group (RPS19 Mo+Saracatinib injected 1 cell stage and aqueous exposure) respectively. The incubation of the zebrafish in various groups was carried out up to 96 hours at 28.5° C. and the embryos were visually observed for any phenotypic changes or mortality. The embryos were euthanized at the end of the study by using tricaine methane sulfonate (ms-222), and fixed in 4% PFA for 2 hours at room temperature. After fixing and washing the embryos thoroughly (3 times) in 1×PBS, o-dianisidine staining was carried out for 30 minutes at room temperature in the dark to assess haemoglobin concentration. Embryos were then washed 3 times in 1×PBS and incubated in bleach solution for 20 minutes at room temperature. Further washing of the embryos were also carried out in 1×PBS to avoid any unnecessary staining. Quantitation of o-dianisidine staining in zebrafish embryos.
Haemoglobin quantification/total amount of the o-dianisidine staining on total embryo was calculated by using Image J software. The total embryo area and the intensity was noted by the software, by manually tracing the exact area of the embryo. The ratios of the intensity and the total embryo area was thus used to calculate the intensity per unit area which is then compared across groups (Control Mo, Egg water; RPS19 Mo, Egg water and RPS19 Mo+Saracatinib injected 1 cell stage and aqueous exposure). Percent intensity of staining of embryos was considered to be proportional to the haemoglobin concentration in each embryo and thus % improvement or recovery of erythropoiesis by administration of Saracatinib was further calculated.

The subject of assay [2] is Id1 expression in lung cancer cell lines. Conditions: cited from earlier work.
In another assay the test system is Lyn kinase. The experiment in a line: Lyn kinase activity in RPS19 knock-down zebrafish embryos. In kind it is in vivo. Conditions: 25 μM, 50 μM and 100 μM.

“Also recorded” adds a separate entry of the source.

Regarding `CN1CCN(CCOc2cc(OC3CCOCC3)c3c(Nc4c(Cl)ccc5c4OCO5)ncnc3c2)CC1` [Saracatinib, N-(5-chloro-1,3-benzodioxol-4-yl)-7-[2-(4-methyl-1-piperazinyl)ethoxy]-5-[(tetrahydro-2H-pyran-4-yl)oxy]-4-quinazolinamine], the “Erythropoiesis / erythropoietic defect (in words)” value in assay [1] (25 μM, 50 μM and 100 μM, compared to RPS19 injected morpholinos, 96 hpf, o-dianisidine staining) is listed as “rescue in haemopoietic defect; also recorded: dose related improvement in erythropoiesis; also recorded: improvement in the erythropoietic defect”. Also, the “% improvement of erythropoiesis” value is recorded as 10.49% in assay [1] (Saracatinib 25 μM, 96 hpf); 36.75% in assay [1] (Saracatinib 50 μM, 96 hpf); 19.82% in assay [1] (Saracatinib 100 μM, 96 hpf). In addition, the “% intensity of staining” value is 2.646% in assay [1] (Saracatinib 25 μM, 96 hpf); 3.557% in assay [1] (Saracatinib 50 μM, 96 hpf); 3.18% in assay [1] (Saracatinib 100 μM, 96 hpf). Further, in assay [1] (compared to zebrafish treated with RPS19 morpholino), the “Haemoglobin concentration (in words)” value was “increased haemoglobin concentration”. Also, the Id1 expression result in assay [2] is on record as “downregulates the Id1 expression”. In addition, the Lyn kinase activity result with Lyn kinase is “decrease in the Lyn kinase activity”.
